From the CheMixHub ionic liquid set

Experiment: xn = mol fraction of the nth substance listed
Conditions: 101 kPa; for electrical conductivity: 293.2 K

CCCCCC(=O)[O-].C[NH+](C)Cc1ccccc1 + CN(C)C=O
viscosity [mPa·s]
Conditions | 293.15 K | 298.15 K | 303.15 K | 308.15 K | 313.15 K | 318.15 K | 323.15 K | 328.15 K
x1 = 0.005406 | 0.956 | 0.916 | 0.879 | 0.847 | 0.818 | 0.792 | 0.769 | 0.748
x1 = 0.008974 | 0.969 | 0.927 | 0.889 | 0.855 | 0.825 | 0.798 | 0.774 | 0.752
x1 = 0.01235 | 0.978 | 0.934 | 0.895 | 0.861 | 0.83 | 0.803 | 0.778 | 0.755
x1 = 0.01781 | 1.002 | 0.955 | 0.913 | 0.877 | 0.844 | 0.815 | 0.789 | 0.765
x1 = 0.01976 | 1 | 0.954 | 0.913 | 0.877 | 0.844 | 0.816 | 0.79 | 0.766
x2 = 0.9681 | 1.042 | 0.99 | 0.945 | 0.905 | 0.869 | 0.837 | 0.809 | 0.784
x2 = 0.9717 | 1.03 | 0.98 | 0.935 | 0.896 | 0.862 | 0.831 | 0.803 | 0.778
x2 = 0.9757 | 1.02 | 0.971 | 0.928 | 0.89 | 0.856 | 0.826 | 0.799 | 0.774

CC[N+](CC)=C(N(C)C)N(C)C.O=S(=O)([N-]S(=O)(=O)C(F)(F)F)C(F)(F)F + CO
viscosity [mPa·s]
Conditions | 293.15 K | 298.15 K | 303.15 K | 308.15 K | 313.15 K | 318.15 K | 323.15 K
x1 = 0.0003107 | 0.59 | 0.556 | 0.528 | 0.493 | 0.462 | 0.442 | 0.42
x1 = 0.0006532 | 0.597 | 0.56 | 0.532 | 0.497 | 0.466 | 0.445 | 0.423
x1 = 0.00159 | 0.604 | 0.568 | 0.538 | 0.503 | 0.471 | 0.45 | 0.427
x1 = 0.003264 | 0.619 | 0.58 | 0.55 | 0.514 | 0.481 | 0.459 | 0.435
x1 = 0.006358 | 0.646 | 0.605 | 0.573 | 0.535 | 0.5 | 0.477 | 0.452
x1 = 0.01246 | 0.702 | 0.656 | 0.617 | 0.576 | 0.538 | 0.514 | 0.488
x1 = 0.01888 | 0.766 | 0.715 | 0.672 | 0.627 | 0.585 | 0.554 | 0.525
x1 = 0.02468 | 0.822 | 0.767 | 0.715 | 0.667 | 0.622 | 0.59 | 0.558
x1 = 0.03071 | 0.893 | 0.828 | 0.774 | 0.718 | 0.67 | 0.631 | 0.596
x1 = 0.03685 | 0.963 | 0.891 | 0.827 | 0.77 | 0.719 | 0.675 | 0.636
x1 = 0.04275 | 1.048 | 0.966 | 0.894 | 0.83 | 0.773 | 0.724 | 0.68
x1 = 0.05163 | 1.152 | 1.06 | 0.979 | 0.907 | 0.844 | 0.788 | 0.739
x1 = 0.05988 | 1.267 | 1.162 | 1.07 | 0.989 | 0.918 | 0.856 | 0.801
x1 = 0.07419 | 1.484 | 1.356 | 1.244 | 1.146 | 1.06 | 0.985 | 0.919
x1 = 0.08753 | 1.71 | 1.56 | 1.429 | 1.313 | 1.21 | 1.119 | 1.04

Conditions | electrical conductivity [S/m]
x1 = 0.0003107 | 0.0546
x1 = 0.0006532 | 0.102
x1 = 0.00159 | 0.205
x1 = 0.003264 | 0.334
x1 = 0.006358 | 0.564
x1 = 0.01246 | 0.89
x1 = 0.01888 | 1.17
x1 = 0.02468 | 1.31
x1 = 0.03071 | 1.47
x1 = 0.03685 | 1.59
x1 = 0.04275 | 1.67
x1 = 0.05163 | 1.78
x1 = 0.05988 | 1.83
x1 = 0.07419 | 1.89
x1 = 0.08753 | 1.9
